The subject of data set [1] is Primary adult human keratinocytes (HEKa). Nature of the data set: 2-D Dandruff Model: triple cytokine mix (IL-17, IL-22, TNFα) induced IL-8 by ELISA, normalised to protein. It counts as cell-based. Conditions: with triple cytokine mix, mix alone 744.83. As for the experimental part:
Primary adult human keratinocytes (HEKa) frozen at passage 1 were purchased from Invitrogen (Cat no […]). They were thawed into KGM Gold (Lonza cat no 00195769) made up with all components of the accompanying bullet kit plus 70μM calcium (from a stock solution of 200mM calcium chloride), placed in a T75 tissue culture flask and grown to 70-80% confluence. The cells were passaged and again grown to 70-80% confluence. At passage 3 the cells were washed with calcium and magnesium free PBS (Life Technologies cat no 14190-094) and removed from the flask using trypsin-EDTA (Life Technologies cat no 25300-054) and washed by centrifugation with trypsin neutralising solution (Life Technologies cat no R-002-100). The cell pellet was re-suspended in KGM Gold plus 70μM calcium and containing the bullet kit components but omitting the gentamycin and hydrocortisone (referred to as plating medium). The cells were plated into 24-well plates at a density of 2x10^4 cells/well and allowed to settle for 24 hours prior to treatment. The medium is removed from the cells and replace by 0.5ml plating medium containing […], […] and […] TNFα together with the active at the required concentration. A concentration range can be done. Also included are an untreated control, a vehicle control and a triple cytokine mix without active all in triplicate. The plates are incubated for a further 16 to 24 hours. In this case the actives were 6-gingerdiol and a selection of curcuminoids. The medium is harvested for IL-8 ELISA (R &D Systems Duoset kit cat no DY208) and the cells lysed for protein assay (Pierce BCA Protein Assay Kit Life Technologies cat no 23225) in order to normalise IL-8 to protein.
A general note: An ELISA detects its analyte on a solid surface through an enzyme-linked reagent.

Data set [2] is described as follows: Solubility in organic solvents. The settings on record: commonly used organic solvents such as alcohols, ethers, esters, acetonitrile, chloroform, dichloromethane, dimethylformamide, dimethylsulfoxide. The data set is classed as physicochemical.
The test system of a further data set is THP1-XBlue™ cells. Nature of the data set: Anti-inflammation THP-1 in vitro assay: LPS-induced IL-6 by ELISA. The data set is classed as cell-based. As for the experimental part: The following procedure was used to test the anti-inflammation efficacy of the various actives alone or in combination. THP1-XBlue™ (Cat No: thpx-sp, InvivoGen) cells were cultured as suspense in RPMI 1640 medium supplemented with 10% FBS, penicillin (10 U/mL) - streptomycin (10 µg/ML). Cells were differentiated in 24-well plates at the density of 5 x 10^5 cells / well with 100 nM PMA for 72 h. Cells were then co-treated with pure E. coli lipopolysaccharides (LPS) and single concentration or a combination of 6-gingerdiol and niacinamide at different doses. After 24 h, the supernatants were collected measured for interleukin (IL)-6 as pro-inflammatory bio-marker using enzyme-linked immunosorbent assay (ELISA).

SMILES strings stand for the structures.

As to `CCCCCC(O)CC(O)CCc1ccc(O)c(OC)c1` (stereo not shown) [6-gingerdiol, 1-(4-hydroxy-3-methoxyphenyl)decane-3,5-diol], the “Concentration of IL-8” value in data set [1] (5 µM of 6-gingerdiol) was found to be 347.99 pg/100µgprotein; in data set [1] (10 µM of 6-gingerdiol), 446.85 pg/100µgprotein; in data set [1] (20 µM of 6-gingerdiol) it was 390.31 pg/100µgprotein. Moreover, the solubility entry in data set [2] is reported as “soluble”. For the same compound, the “Concentration of IL-6” value is 37212 pg/mL in the data set with THP1-XBlue™ cells (1.25 µM of 6-gingerdiol, with LPS, LPS alone 46137) and 8781 pg/mL with THP1-XBlue™ cells (10 µM of 6-gingerdiol, co-treated with LPS, 24 h, LPS alone 10547).

`NC(=O)c1cccnc1` [niacinamide]: the “Concentration of IL-8” value in data set [1] (10 mM of niacinamide) came to 408.30 pg/100µgprotein. Besides, the “Concentration of IL-6” value in the data set on THP1-XBlue™ cells (0.5 mM niacinamide, with LPS, LPS alone 46137) turned out to be 41688 pg/mL; in the data set on THP1-XBlue™ cells (1 mM of niacinamide, with LPS, LPS alone 46137) it was 39894 pg/mL; with THP1-XBlue™ cells (16 mM of niacinamide, co-treated with LPS, 24 h, LPS alone 10547), 6031 pg/mL.

The record behind these values is patent publication EP3506874B1, “A PERSONAL CARE COMPOSITION” (Unilever N.V., priority 2016, dated 2018).
